Patent US20260262643A1, “HERBICIDAL BENZOXAZINES” (FMC CORPORATION, priority 2022, published 2026)

Tests used:
oat, wild [1] = assay: Test C preemergence; type: in vivo, Avena fatua; details: for Oat, Wild plant response rating: 500 g ai/ha, preemergence, 0 to 100 scale (0 no effect, 100 complete control); for Plant response rating, Oat, Wild: Preemergence, 125 g ai/ha, 0 to 100 scale, 0 no effect, 100 complete control
Summary of the method: (§1)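 Seeds in loam–sand blend received preemergence directed soil spray of test chemicals in non-phytotoxic solvent with surfactant; postemergence treatment was applied at one- to two-leaf stage (2–10 cm). After 10 days in greenhouse, injury rated visually versus untreated controls, 0 (no effect) to 100 (complete control).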

soybean [2] = assay: Test C preemergence; type: in vivo, Glycine max; details: for Soybean plant response rating: 500 g ai/ha, preemergence, 0 to 100 scale (0 no effect, 100 complete control); for Plant response rating, Soybean: Preemergence, 125 g ai/ha, 0 to 100 scale, 0 no effect, 100 complete control
Summary of the method: as §1

wheat [3] = assay: Test C preemergence; type: in vivo, Triticum aestivum; details: for Wheat plant response rating: 500 g ai/ha, preemergence, 0 to 100 scale (0 no effect, 100 complete control); for Plant response rating, Wheat: Preemergence, 125 g ai/ha, 0 to 100 scale, 0 no effect, 100 complete control
Summary of the method: as §1

barnyardgrass [4] = assay: Test C postemergence; type: in vivo, Echinochloa crusgalli; details: 10 days, 0 to 100 scale (0 no effect, 100 complete control)
Summary of the method: as §1

barnyardgrass [5] = assay: Test C preemergence; type: in vivo, Echinochloa crusgalli; details: for Barnyardgrass plant response rating: 500 g ai/ha, preemergence, 0 to 100 scale (0 no effect, 100 complete control); for Plant response rating, Barnyardgrass: Preemergence, 125 g ai/ha, 0 to 100 scale, 0 no effect, 100 complete control
Summary of the method: as §1

wheat [6] = assay: Test C postemergence; type: in vivo, Triticum aestivum; details: 10 days, 0 to 100 scale (0 no effect, 100 complete control)
Summary of the method: as §1

rice = assay: Test D flooded paddy test; type: in vivo, Oryza sativa; details: 250 g ai/ha, applied to paddy water, visual rating after 13 to 14 days, scale 0 to 100 (0 no effect, 100 complete control)
Summary of the method: (§2)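 Plants at the 2-leaf stage were grown in pots flooded to 3 cm, and compound was applied directly into the paddy water, with depth kept throughout. After 13–14 days in a greenhouse, injury was rated visually against untreated controls on a 0–100 scale (100 = complete control); a dash means not tested.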

kochia [7] = assay: Test C preemergence; type: in vivo, Bassia scoparia; details: for Kochia plant response rating: 500 g ai/ha, preemergence, 0 to 100 scale (0 no effect, 100 complete control); for Plant response rating, Kochia: Preemergence, 125 g ai/ha, 0 to 100 scale, 0 no effect, 100 complete control
Summary of the method: as §1

blackgrass [8] = assay: Test C postemergence; type: in vivo, Alopecurus myosuroides; details: 10 days, 0 to 100 scale (0 no effect, 100 complete control)
Summary of the method: as §1

soybean [9] = assay: Test C postemergence; type: in vivo, Glycine max; details: 10 days, 0 to 100 scale (0 no effect, 100 complete control)
Summary of the method: as §1

pigweed, palmer [10] = assay: Test C preemergence; type: in vivo, Amaranthus palmeri; details: for Pigweed, Palmer plant response rating: 500 g ai/ha, preemergence, 0 to 100 scale (0 no effect, 100 complete control); for Plant response rating, Pigweed, Palmer: Preemergence, 125 g ai/ha, 0 to 100 scale, 0 no effect, 100 complete control
Summary of the method: as §1

barnyardgrass [11] = assay: Test D flooded paddy test; type: in vivo, Echinochloa crus-galli; details: 250 g ai/ha, applied to paddy water, visual rating after 13 to 14 days, scale 0 to 100 (0 no effect, 100 complete control)
Summary of the method: as §2

corn [12] = assay: Test C preemergence; type: in vivo, Zea mays; details: for Corn plant response rating: 500 g ai/ha, preemergence, 0 to 100 scale (0 no effect, 100 complete control); for Plant response rating, Corn: Preemergence, 125 g ai/ha, 0 to 100 scale, 0 no effect, 100 complete control
Summary of the method: as §1

galium = assay: Test C postemergence; type: in vivo, Galium aparine; details: 10 days, 0 to 100 scale (0 no effect, 100 complete control)
Summary of the method: as §1

ragweed [13] = assay: Test C preemergence; type: in vivo, Ambrosia artemisiifolia; details: for Ragweed plant response rating: 500 g ai/ha, preemergence, 0 to 100 scale (0 no effect, 100 complete control); for Plant response rating, Ragweed: Preemergence, 125 g ai/ha, 0 to 100 scale, 0 no effect, 100 complete control
Summary of the method: as §1

green foxtail [14] = assay: Test C preemergence; type: in vivo, Setaria viridis; details: for Foxtail, Green plant response rating: 500 g ai/ha, preemergence, 0 to 100 scale (0 no effect, 100 complete control); for Plant response rating, Foxtail, Green: Preemergence, 125 g ai/ha, 0 to 100 scale, 0 no effect, 100 complete control
Summary of the method: as §1

green foxtail [15] = assay: Test C postemergence; type: in vivo, Setaria viridis; details: 10 days, 0 to 100 scale (0 no effect, 100 complete control)
Summary of the method: as §1

oat, wild [16] = assay: Test C postemergence; type: in vivo, Avena fatua; details: 10 days, 0 to 100 scale (0 no effect, 100 complete control)
Summary of the method: as §1

corn [17] = assay: Test C postemergence; type: in vivo, Zea mays; details: 10 days, 0 to 100 scale (0 no effect, 100 complete control)
Summary of the method: as §1

ragweed [18] = assay: Test C postemergence; type: in vivo, Ambrosia artemisiifolia; details: 10 days, 0 to 100 scale (0 no effect, 100 complete control)
Summary of the method: as §1

blackgrass [19] = assay: Test C preemergence; type: in vivo, Alopecurus myosuroides; details: for Blackgrass plant response rating: 500 g ai/ha, preemergence, 0 to 100 scale (0 no effect, 100 complete control); for Plant response rating, Blackgrass: Preemergence, 125 g ai/ha, 0 to 100 scale, 0 no effect, 100 complete control
Summary of the method: as §1

ryegrass, Italian [20] = assay: Test C postemergence; type: in vivo, Lolium multiflorum; details: 10 days, 0 to 100 scale (0 no effect, 100 complete control)
Summary of the method: as §1

pigweed, palmer [21] = assay: Test C postemergence; type: in vivo, Amaranthus palmeri; details: 10 days, 0 to 100 scale (0 no effect, 100 complete control)
Summary of the method: as §1

ducksalad = assay: Test D flooded paddy test; type: in vivo, Heteranthera limosa; details: 250 g ai/ha, applied to paddy water, visual rating after 13 to 14 days, scale 0 to 100 (0 no effect, 100 complete control)
Summary of the method: as §2

ryegrass, Italian [22] = assay: Test C preemergence; type: in vivo, Lolium multiflorum; details: for Ryegrass, Italian plant response rating: 500 g ai/ha, preemergence, 0 to 100 scale (0 no effect, 100 complete control); for Plant response rating, Ryegrass, Italian: Preemergence, 125 g ai/ha, 0 to 100 scale, 0 no effect, 100 complete control
Summary of the method: as §1

kochia [23] = assay: Test C postemergence; type: in vivo, Bassia scoparia; details: 10 days, 0 to 100 scale (0 no effect, 100 complete control)
Summary of the method: as §1

sedge, umbrella = assay: Test D flooded paddy test; type: in vivo, Cyperus difformis; details: 250 g ai/ha, applied to paddy water, visual rating after 13 to 14 days, scale 0 to 100 (0 no effect, 100 complete control)
Summary of the method: as §2

horseweed = assay: Test C postemergence; type: in vivo, Erigeron canadensis; details: 10 days, 0 to 100 scale (0 no effect, 100 complete control)
Summary of the method: as §1

CCOCC1CN(C(=O)c2cc(-n3cnc(C4CCC4)n3)ccc2OC)c2cccc(Cl)c2O1 (stereo not drawn) [Compound 377]
60: Plant response rating, Soybean (soybean [2]) | Plant response rating, Ryegrass, Italian (ryegrass, Italian [22])
50: Plant response rating, Barnyardgrass (barnyardgrass [4]; 500 g ai/ha, postemergence) | Plant response rating, Foxtail, Green (green foxtail [14]) | Plant response rating, Ryegrass, Italian (ryegrass, Italian [20]; 500 g ai/ha, postemergence) | Plant response rating, Horseweed (horseweed; Postemergence, 125 g ai/ha)
100: Barnyardgrass plant response rating (barnyardgrass [5]) | Kochia plant response rating (kochia [7]) | Plant response rating, Soybean (soybean [9]; 500 g ai/ha, postemergence) | Plant response rating, Soybean (soybean [9]; Postemergence, 125 g ai/ha) | Pigweed, Palmer plant response rating (pigweed, palmer [10]) | Plant response rating, Pigweed, Palmer (pigweed, palmer [10]) | Plant response rating, Galium (galium; 500 g ai/ha, postemergence) | Plant response rating, Galium (galium; Postemergence, 125 g ai/ha) | Foxtail, Green plant response rating (green foxtail [14]) | Plant response rating, Pigweed, Palmer (pigweed, palmer [21]; 500 g ai/ha, postemergence)
30: Plant response rating, Barnyardgrass (barnyardgrass [4]; Postemergence, 125 g ai/ha) | Plant response rating, Wheat (wheat [6]; 500 g ai/ha, postemergence) | Plant response rating, Ragweed (ragweed [13]) | Plant response rating, Corn (corn [17]; 500 g ai/ha, postemergence) | Plant response rating, Horseweed (horseweed; 500 g ai/ha, postemergence)
90: Soybean plant response rating (soybean [2]) | Plant response rating, Ragweed (ragweed [18]; 500 g ai/ha, postemergence) | Plant response rating, Pigweed, Palmer (pigweed, palmer [21]; Postemergence, 125 g ai/ha) | Plant response rating, Kochia (kochia [23]; 500 g ai/ha, postemergence) | Plant response rating, Kochia (kochia [23]; Postemergence, 125 g ai/ha)
15: Plant response rating, Ducksalad (Flood) (ducksalad)
70: Plant response rating, Kochia (kochia [7]) | Ragweed plant response rating (ragweed [13]) | Ryegrass, Italian plant response rating (ryegrass, Italian [22])
80: Plant response rating, Ragweed (ragweed [18]; Postemergence, 125 g ai/ha)
55: Plant response rating, Sedge, Umbrella (Flood) (sedge, umbrella)
20: Oat, Wild plant response rating (oat, wild [1]) | Plant response rating, Oat, Wild (oat, wild [1]) | Wheat plant response rating (wheat [3]) | Plant response rating, Wheat (wheat [6]; Postemergence, 125 g ai/ha) | Plant response rating, Blackgrass (blackgrass [8]; 500 g ai/ha, postemergence) | Corn plant response rating (corn [12]) | Plant response rating, Foxtail, Green (green foxtail [15]; Postemergence, 125 g ai/ha) | Plant response rating, Corn (corn [17]; Postemergence, 125 g ai/ha) | Blackgrass plant response rating (blackgrass [19])
0: Plant response rating, Wheat (wheat [3]) | Plant response rating, Rice (Flood) (rice) | Plant response rating, Blackgrass (blackgrass [8]; Postemergence, 125 g ai/ha) | Plant response rating, Barnyardgrass (Flood) (barnyardgrass [11]) | Plant response rating, Corn (corn [12]) | Plant response rating, Oat, Wild (oat, wild [16]; 500 g ai/ha, postemergence) | Plant response rating, Oat, Wild (oat, wild [16]; Postemergence, 125 g ai/ha) | Plant response rating, Blackgrass (blackgrass [19])
40: Plant response rating, Barnyardgrass (barnyardgrass [5]) | Plant response rating, Foxtail, Green (green foxtail [15]; 500 g ai/ha, postemergence) | Plant response rating, Ryegrass, Italian (ryegrass, Italian [20]; Postemergence, 125 g ai/ha)

Cc1ccc(-n2cnc(CS(C)(=N)=O)n2)cc1C(=O)N1C[C@H](C)Oc2c(Cl)cccc21 (stereo partly drawn) [Compound 403]
45: Plant response rating, Sedge, Umbrella (Flood) (sedge, umbrella)
100: Kochia plant response rating (kochia [7]) | Plant response rating, Soybean (soybean [9]; Postemergence, 125 g ai/ha) | Pigweed, Palmer plant response rating (pigweed, palmer [10]) | Plant response rating, Galium (galium; 500 g ai/ha, postemergence) | Plant response rating, Galium (galium; Postemergence, 125 g ai/ha) | Foxtail, Green plant response rating (green foxtail [14]) | Plant response rating, Pigweed, Palmer (pigweed, palmer [21]; 500 g ai/ha, postemergence)
90: Soybean plant response rating (soybean [2]) | Plant response rating, Foxtail, Green (green foxtail [14]) | Plant response rating, Foxtail, Green (green foxtail [15]; 500 g ai/ha, postemergence) | Plant response rating, Oat, Wild (oat, wild [16]; 500 g ai/ha, postemergence) | Plant response rating, Pigweed, Palmer (pigweed, palmer [21]; Postemergence, 125 g ai/ha) | Ryegrass, Italian plant response rating (ryegrass, Italian [22])
40: Oat, Wild plant response rating (oat, wild [1]) | Plant response rating, Barnyardgrass (barnyardgrass [5]) | Plant response rating, Ryegrass, Italian (ryegrass, Italian [22])
30: Plant response rating, Barnyardgrass (barnyardgrass [4]; Postemergence, 125 g ai/ha) | Plant response rating, Pigweed, Palmer (pigweed, palmer [10]) | Plant response rating, Ragweed (ragweed [13]) | Plant response rating, Oat, Wild (oat, wild [16]; Postemergence, 125 g ai/ha)
60: Plant response rating, Kochia (kochia [7]) | Plant response rating, Blackgrass (blackgrass [19]) | Plant response rating, Horseweed (horseweed; 500 g ai/ha, postemergence)
20: Plant response rating, Wheat (wheat [6]; Postemergence, 125 g ai/ha) | Plant response rating, Blackgrass (blackgrass [8]; Postemergence, 125 g ai/ha) | Plant response rating, Corn (corn [17]; Postemergence, 125 g ai/ha)
10: Plant response rating, Corn (corn [12])
0: Plant response rating, Oat, Wild (oat, wild [1]) | Plant response rating, Wheat (wheat [3]) | Plant response rating, Rice (Flood) (rice) | Plant response rating, Barnyardgrass (Flood) (barnyardgrass [11])
80: Plant response rating, Soybean (soybean [2]) | Plant response rating, Blackgrass (blackgrass [8]; 500 g ai/ha, postemergence) | Ragweed plant response rating (ragweed [13]) | Plant response rating, Corn (corn [17]; 500 g ai/ha, postemergence) | Blackgrass plant response rating (blackgrass [19]) | Plant response rating, Kochia (kochia [23]; 500 g ai/ha, postemergence) | Plant response rating, Kochia (kochia [23]; Postemergence, 125 g ai/ha)
70: Plant response rating, Barnyardgrass (barnyardgrass [4]; 500 g ai/ha, postemergence) | Barnyardgrass plant response rating (barnyardgrass [5]) | Plant response rating, Ragweed (ragweed [18]; Postemergence, 125 g ai/ha)
50: Wheat plant response rating (wheat [3]) | Corn plant response rating (corn [12]) | Plant response rating, Foxtail, Green (green foxtail [15]; Postemergence, 125 g ai/ha) | Plant response rating, Ryegrass, Italian (ryegrass, Italian [20]; Postemergence, 125 g ai/ha) | Plant response rating, Ducksalad (Flood) (ducksalad)
